Reference: US20230365624A1, “NOVEL ANGIOTENSIN I-CONVERTING ENZYME (ACE) INHIBITORY PEPTIDES” (Thai Union Group Public Company Limited, priority 2020, published 2023)
No end group written: not given here.

Test system: GI enzymes (pepsin and pancreatin)
Assay: In vitro gastrointestinal (GI) digestion of synthetic peptides, with ACE inhibitory activity and α-amino group content before and after
Assay type: in vitro ADME
Settings: pepsin pH 2.0, 37° C., 1 h, then pancreatin pH 7.5, 37° C., 2 h (FIG. 6)
Method: It is necessary for ACE inhibitory peptides to retain its activity in GI tract so that it can be absorbed into the bloodstream, where the peptide inhibitors can show their hypotensive effect. In vitro gastrointestinal digestion provides an easy process to imitate antihypertensive activity of peptides under oral administration. […] In vitro GI digestion was simulated according to the method of Zhu et al. (2008) with some modifications. One milligram of each sample was dissolved in 0.5 ml of 0.1 M KCl-HCl, and the pH was adjusted to 2.0 with 6 M HCl. Pepsin (1% enzyme/substrate, w/w) was added, and the mixture was incubated in a shaking water bath at 37° C. for 1 h, and the pH was then adjusted to pH 7.5. […] ACE inhibitory activity and α-amino groups content of the peptides before and after in vitro GI digestion were measured. […]
ACE inhibitory activity assay was carried out according to the methods of Cushman and Cheung (1971) and Wu et al. (2002) with some modifications. […] Absorbance was measured at 228 nm. The percentage of ACE inhibition was calculated as follows: […]
Content of α-amino groups was performed according to Adler-Nissen (1979). […] The mixture was left at room temperature for 30 min before an absorbance at 420 nm was monitored. […] The content of α-amino groups was expressed as leucine equivalents.

VSVVQYSR [VSVVQYSR]
Decrease of ACE inhibitory activity after GI digestion: ~19%
